Results from ChEMBL document CHEMBL3864191 (ACS Med Chem Lett, 2016).
Where “and” joins values, the source holds several entries; their conditions need not be identical. Equal values may be shown once. Calls of active or inactive are those of the source. The rule behind the calls is not given here.

Assays:
[1] = Cytotoxicity against human DU145 cells assessed as reduction in cell viability after 72 hrs by MTT assay; assay type: functional, cell-based, DU-145
[2] = Cytotoxicity against mouse CT26 cells assessed as reduction in cell viability after 72 hrs by MTT assay; assay type: functional, cell-based
[3] = target: Induced myeloid leukemia cell differentiation protein Mcl-1 (Homo sapiens, UniProt Q07820); test: Inhibition of FAM-Bid binding to human MCL1 expressed in Escherichia coli BL21 after 30 mins by fluorescence polarization assay
Chain of Induced myeloid leukemia cell differentiation protein Mcl-1 (Q07820 whole entry): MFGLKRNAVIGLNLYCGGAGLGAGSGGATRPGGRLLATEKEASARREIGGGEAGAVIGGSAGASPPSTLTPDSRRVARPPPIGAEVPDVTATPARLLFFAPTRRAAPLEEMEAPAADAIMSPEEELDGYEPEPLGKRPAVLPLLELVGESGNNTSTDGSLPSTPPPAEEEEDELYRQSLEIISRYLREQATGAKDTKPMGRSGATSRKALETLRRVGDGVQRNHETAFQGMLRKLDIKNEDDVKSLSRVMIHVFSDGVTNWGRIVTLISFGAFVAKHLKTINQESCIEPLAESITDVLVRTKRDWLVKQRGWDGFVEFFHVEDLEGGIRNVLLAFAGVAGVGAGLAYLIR

[4] = Cytotoxicity against human leukemia cells assessed as cell growth inhibition after 48 hrs by SRB assay; assay type: functional
[5] = Cytotoxicity against human non-small cell lung cancer cells assessed as cell growth inhibition after 48 hrs by SRB assay; assay type: functional; conditions: Cancer cell lines
[6] = Cytotoxicity against human colon cancer cells assessed as cell growth inhibition after 48 hrs by SRB assay; assay type: functional; conditions: Cancer cell lines
[7] = Cytotoxicity against human CNS cancer cells assessed as cell growth inhibition after 48 hrs by SRB assay; assay type: functional; conditions: Cancer cell lines
[8] = Cytotoxicity against human melanoma cells assessed as cell growth inhibition after 48 hrs by SRB assay; assay type: functional
[9] = Cytotoxicity against human ovarian cancer cells assessed as cell growth inhibition after 48 hrs by SRB assay; assay type: functional; conditions: Cancer cell lines
[10] = Cytotoxicity against human renal cancer cells assessed as cell growth inhibition after 48 hrs by SRB assay; assay type: functional; conditions: Cancer cell lines
[11] = Cytotoxicity against HEK293T cells assessed as reduction in cell viability at 0.33 to 100 uM after 72 hrs by MTT assay; assay type: toxicity, cell-based; conditions: human, hek-293t
[12] = Cytotoxicity against African green monkey Vero cells assessed as reduction in cell viability at 0.33 to 100 uM after 72 hrs by MTT assay; assay type: toxicity, cell-based; conditions: chlorocebus sabaeus
[13] = Cytotoxicity against human NCI60 cells assessed as cell growth inhibition after 48 hrs by SRB assay; assay type: functional; conditions: NCI60, 48 h
cells [14] = conditions: Homo sapiens, MCF7, 72 h
Description: Cytotoxicity against human MCF7 cells assessed as reduction in cell viability after 72 hrs by MTT assay

cells [15] = conditions: Homo sapiens, HCT-116, 72 h
Description: Cytotoxicity against human HCT116 cells assessed as reduction in cell viability after 72 hrs by MTT assay

[16] = target: Apoptosis regulator Bcl-2 (Homo sapiens, UniProt P10415); test: Inhibition of FAM-Bid binding to human BCL2 expressed in Escherichia coli BL21 after 30 mins by fluorescence polarization assay
Chain of Apoptosis regulator Bcl-2 (P10415 whole entry): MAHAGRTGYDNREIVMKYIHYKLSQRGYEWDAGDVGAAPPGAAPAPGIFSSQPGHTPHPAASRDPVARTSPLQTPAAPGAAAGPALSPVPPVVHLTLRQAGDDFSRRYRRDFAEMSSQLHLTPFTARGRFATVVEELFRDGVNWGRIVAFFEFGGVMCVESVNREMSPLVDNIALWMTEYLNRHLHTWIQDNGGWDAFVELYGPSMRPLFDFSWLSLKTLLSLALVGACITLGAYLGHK

MCF7 = test: Potency index, ratio of (-)-gossypol IC50 to compound IC50 for human MCF7 cells; assay type: functional
[17] = Cytotoxicity against human prostate cancer cells assessed as cell growth inhibition after 48 hrs by SRB assay; assay type: functional; conditions: Cancer cell lines
[18] = Cytotoxicity against human breast cancer cells assessed as cell growth inhibition after 48 hrs by SRB assay; assay type: functional; conditions: Cancer cell lines
[19] = Stability in human liver microsomes at 4.75 uM preincubated for 5 mins followed by NADPH addition after 60 mins by HPLC analysis; assay type: ADME; conditions: 1 h
[20] = Stability in rat liver microsomes at 4.75 uM preincubated for 5 mins followed by NADPH addition after 60 mins by HPLC analysis; assay type: ADME; conditions: 1 h
[21] = Chemical stability of compound in pH 1 to 10 Hcl solution after 3 hrs by HPLC analysis; assay type: physicochemical; conditions: buffer, pH 1, 3 h
HOP-92 = test: Cytotoxicity against human HOP92 cells assessed as cell growth inhibition after 48 hrs by SRB assay; assay type: functional, cell-based
SNB-19 = test: Cytotoxicity against human SNB19 cells assessed as cell growth inhibition after 48 hrs by SRB assay; assay type: functional, cell-based
U-251 = test: Cytotoxicity against human U251 cells assessed as cell growth inhibition after 48 hrs by SRB assay; assay type: functional, cell-based
RXF 393 = test: Cytotoxicity against human RXF393 cells assessed as cell growth inhibition after 48 hrs by SRB assay; assay type: functional, cell-based
NCI60 = test: Cytotoxicity against human NCI60 cells assessed as cell growth inhibition up to 10 uM after 48 hrs by SRB assay; assay type: functional, cell-based
CT26 = test: Potency index, ratio of (-)-gossypol IC50 to compound IC50 for mouse CT26 cells; assay type: functional

Cc1cc2c(C(C)C)c(O)c(O)c(C=O)c2c(O)c1-c1c(C)cc2c(C(C)C)c(O)c(O)c(C=O)c2c1O [GOSSYPOL]
IC50 ([1]; du-145): 7970 nM and 19200 nM and 7930 nM
IC50 ([2]; ct26): 23200 nM and 61900 nM and 46800 nM
IC50 [3]: 856 nM
Ki [3]: 162 nM
GI50 [4]: 2470 nM
GI50 [5]: 2850 nM
GI50 [6]: 3190 nM
GI50 [7]: 2970 nM
GI50 [8]: 3220 nM
GI50 [9]: 3500 nM
GI50 [10]: 3160 nM
Activity [11]: Toxic
Activity [12]: Toxic
GI50 [13]: 800 to 5100 nM
IC50 (cells [14]): 54000 nM
IC50 (cells [15]): 3590 nM

COC(=O)CCCN/C=C1\C(=O)C(O)=C(C(C)C)c2cc(C)c(-c3c(C)cc4c(c3O)/C(=C/NCCCC(=O)OC)C(=O)C(O)=C4C(C)C)c(O)c21 (stereo in doubt; 16)
IC50 ([1]; Homo sapiens, DU-145, 72 h): 2390 nM
IC50 ([2]; Mus musculus, CT26, 72 h): 8390 nM
IC50 [3]: 947 nM
Ki [3]: 180 nM
IC50 [16]: 825 nM
Ki [16]: 341 nM
Ratio IC50 (MCF7): 12
GI50 [4]: 560 nM
GI50 [5]: 480 nM
GI50 [6]: 460 nM
GI50 [7]: 600 nM
GI50 [8]: 990 nM
GI50 [9]: 590 nM
GI50 [10]: 820 nM
GI50 [17]: 410 nM
GI50 [18]: 740 nM
Activity [11]: Non-Toxic
Activity [12]: Non-Toxic
GI50 [13]: 100 to 1700 nM
Stability [19]: Stable
Stability [20]: Stable
Stability [21]: Stable
IC50 (cells [14]): 4390 nM
IC50 (cells [15]): 2750 nM

COC(=O)CCCCN/C=C1\C(=O)C(O)=C(C(C)C)c2cc(C)c(-c3c(C)cc4c(c3O)/C(=C/NCCCCC(=O)OC)C(=O)C(O)=C4C(C)C)c(O)c21
IC50 ([1]; Homo sapiens, DU-145, 72 h): 7360 nM
IC50 ([2]; Mus musculus, CT26, 72 h): 16600 nM
IC50 [3]: 740 nM
Ki [3]: 139 nM
IC50 [16]: 483 nM
Ki [16]: 182 nM
GI50 [4]: 810 nM
GI50 [5]: 1050 nM
GI50 [6]: 1000 nM
GI50 [7]: 1270 nM
GI50 [8]: 1420 nM
GI50 [9]: 1260 nM
GI50 [10]: 1140 nM
GI50 [17]: 1090 nM
GI50 [18]: 1080 nM
Activity [11]: Non-Toxic
Activity [12]: Non-Toxic
growth inhibition (GI) (HOP-92): Active
growth inhibition (GI) (SNB-19): Active
growth inhibition (GI) (U-251): Active
growth inhibition (GI) (RXF 393): Active
growth inhibition (GI) (NCI60): Active
IC50 (cells [14]): 8220 nM
IC50 (cells [15]): 3380 nM

Cc1cc2c(c(O)c1-c1c(C)cc3c(c1O)/C(=C/NCCCCCCC(=O)O)C(=O)C(O)=C3C(C)C)/C(=C/NCCCCCCC(=O)O)C(=O)C(O)=C2C(C)C
IC50 ([1]; Homo sapiens, DU-145, 72 h): 19100 nM
IC50 ([2]; Mus musculus, CT26, 72 h): 2080 nM
Ratio IC50 (CT26): 11
Activity [11]: Non-Toxic
Activity [12]: Non-Toxic
IC50 (cells [14]): 11500 nM
IC50 (cells [15]): 17300 nM

CC1(C)CCC(CN2CCN(c3ccc(C(=O)NS(=O)(=O)c4ccc(NCC5CCOCC5)c([N+](=O)[O-])c4)c(Oc4cnc5[nH]ccc5c4)c3)CC2)=C(c2ccc(Cl)cc2)C1 [VENETOCLAX]
IC50 [3]: > 4000 nM
Ki [3]: > 780 nM
GI50 [4]: 2110 nM
GI50 [5]: 2700 nM
GI50 [6]: 2850 nM
GI50 [7]: 3350 nM
GI50 [8]: 1750 nM
GI50 [9]: 3330 nM
GI50 [10]: 2600 nM
GI50 [17]: 3510 nM
GI50 [18]: 2770 nM
GI50 [13]: 200 to 5100 nM
